Data as given in US20250354195A1, “METHOD OF SCREENING” (UNIVERSITY OF DUNDEE, priority 2024, published 2025).

Target: T1, GSK3β (Homo sapiens, UniProt P49841+Q96SW2)
T1 construct: genetically engineered using CRISPR/Cas9 technology to endogenously tag GSK3p protein with HiBiT tag at the C-terminus; host or cells: HEK293 cells, CRISPR/Cas9 knock-in of HiBiT at the endogenous GSK3B locus
Assay: High throughput screening for GSK3β-HiBiT targeted degradation (Nano-Glo HiBiT Lytic luminescence)
Type: cell-based
Details: HEK293 cells with endogenously HiBiT-tagged GSK3β, 24 h incubation, products of one-pot plate array (FIG. 1, Method A); for DC50: 0.01-30 μM, read-out: DC50 (half-maximal degradation concentration)
Protocol: High throughput Screening for GSK3 β-HiBiTL: Test compounds were transferred into Echo plate (Beckman, 001-12782, Echo LDV384) using BRAVO automated liquid handling platform which serves as source plate (10 mM stocks in DMSO). Serial dilutions of the compounds were done using Echo550 liquid handler as 30 μM, 10 μM, 3 μM, 1 μM, 0.3 μM, 0.1 μM, 0.03 μM and 0.01 μM in final concentrations in assay plates. One column of each assay plate was reserved for DMSO control treatments. After compounds were serially diluted in assay plates, HEK293 cells (CRL-1573, ATCC) genetically engineered using CRISPR/Cas9 technology to endogenously tag GSK3p protein with HiBiT tag at the C-terminus (Schwinn et al., 2018, CRISPR-mediated tagging of endogenous proteins with a luminescent peptide, ACS Chem. Biol., 13(2), 467-74) were seeded at a density of 5000 cells/well in 50 μL complete media in 384-well TC-grade white plates (Perkin Elmer, Culturplate, 6007619) with the help of Multidrop Combi liquid dispenser and cells were incubated for 24 h with compounds at 37° C. in humidified incubators with 5% CO2. At the end of the treatment, equal volume of Nano-Glo HiBiT Lytic reagent (Promega N3030) supplied with Nano-Glo HiBiT Lytic substrate and LgBiT Protein were added into each well according to manufacturer's instructions, and cells were incubated on an orbital shaker for 15 seconds and for a further 15 minutes at room temperature. Luminescence signals were measured in an appropriate plate reader (PHERAstar FSX, BMG Labtech) (Dixon et al., 2016, NanoLuc complementation reporter optimized for accurate measurement of protein interactions in cells, ACS Chem. Biol., 11, 400-8). Changes in protein abundance upon compound treatment were further analysed by normalising raw luminescence values to DMSO values and fold changes were plotted using for parameter logistic regression with GraphPad Prism (10.1.2).
Furthermore, the present investigators have shown that bifunctional compounds manufactured using the method of the present disclosure may be effective in the uses of bifunctional compounds, for example as PROTACs in targeted protein degradation (TPD). […] GSK3p was targeted for degradation using a binder for GSK3p, and a binder for CRBN; the binders were comprised in molecules comprising moieties for reacting with the orthogonally reactive moieties of the linker. […] The “identifier” identifies the well of the multi-well plate that has been sampled, e.g., AHD2B-1-A1 relates to the top left well in FIG. 1. The DC50 provides an indication of the potency of the bifunctional compound in targeted degradation; Dmax provides an indication of the maximum possible degradation. The use of these metrics is further described in Flexible Fitting of PROTAC Concentration-Response Curves with Changepoint Gaussian Processes, Semenova et al., SLAS Discovery, 2021, 26, 1212-1224.

T1 sequence (P49841 whole entry): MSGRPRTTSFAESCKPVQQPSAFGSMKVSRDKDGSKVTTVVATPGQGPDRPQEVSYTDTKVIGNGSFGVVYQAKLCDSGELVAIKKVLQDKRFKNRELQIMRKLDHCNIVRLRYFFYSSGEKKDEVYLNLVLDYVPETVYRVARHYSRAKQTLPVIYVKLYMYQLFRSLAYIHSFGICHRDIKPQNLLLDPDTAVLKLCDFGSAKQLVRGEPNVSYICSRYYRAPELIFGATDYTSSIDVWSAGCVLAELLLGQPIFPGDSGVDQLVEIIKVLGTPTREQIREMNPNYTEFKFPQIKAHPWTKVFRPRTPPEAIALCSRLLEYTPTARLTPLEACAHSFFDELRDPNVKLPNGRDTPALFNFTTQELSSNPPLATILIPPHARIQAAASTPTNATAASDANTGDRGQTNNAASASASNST
T1 sequence (Q96SW2 whole entry): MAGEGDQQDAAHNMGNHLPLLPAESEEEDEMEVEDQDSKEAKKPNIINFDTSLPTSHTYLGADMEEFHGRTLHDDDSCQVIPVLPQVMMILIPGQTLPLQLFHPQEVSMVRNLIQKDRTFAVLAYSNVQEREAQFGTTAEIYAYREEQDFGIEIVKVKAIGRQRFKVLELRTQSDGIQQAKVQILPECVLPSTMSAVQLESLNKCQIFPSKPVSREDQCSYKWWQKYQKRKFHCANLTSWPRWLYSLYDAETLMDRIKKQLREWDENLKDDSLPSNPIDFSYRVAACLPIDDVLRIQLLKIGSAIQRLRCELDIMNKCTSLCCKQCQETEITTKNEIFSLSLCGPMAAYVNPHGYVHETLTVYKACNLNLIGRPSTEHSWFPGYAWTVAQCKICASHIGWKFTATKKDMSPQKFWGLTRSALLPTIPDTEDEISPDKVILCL
T1 sequence (Q16531 whole entry partner): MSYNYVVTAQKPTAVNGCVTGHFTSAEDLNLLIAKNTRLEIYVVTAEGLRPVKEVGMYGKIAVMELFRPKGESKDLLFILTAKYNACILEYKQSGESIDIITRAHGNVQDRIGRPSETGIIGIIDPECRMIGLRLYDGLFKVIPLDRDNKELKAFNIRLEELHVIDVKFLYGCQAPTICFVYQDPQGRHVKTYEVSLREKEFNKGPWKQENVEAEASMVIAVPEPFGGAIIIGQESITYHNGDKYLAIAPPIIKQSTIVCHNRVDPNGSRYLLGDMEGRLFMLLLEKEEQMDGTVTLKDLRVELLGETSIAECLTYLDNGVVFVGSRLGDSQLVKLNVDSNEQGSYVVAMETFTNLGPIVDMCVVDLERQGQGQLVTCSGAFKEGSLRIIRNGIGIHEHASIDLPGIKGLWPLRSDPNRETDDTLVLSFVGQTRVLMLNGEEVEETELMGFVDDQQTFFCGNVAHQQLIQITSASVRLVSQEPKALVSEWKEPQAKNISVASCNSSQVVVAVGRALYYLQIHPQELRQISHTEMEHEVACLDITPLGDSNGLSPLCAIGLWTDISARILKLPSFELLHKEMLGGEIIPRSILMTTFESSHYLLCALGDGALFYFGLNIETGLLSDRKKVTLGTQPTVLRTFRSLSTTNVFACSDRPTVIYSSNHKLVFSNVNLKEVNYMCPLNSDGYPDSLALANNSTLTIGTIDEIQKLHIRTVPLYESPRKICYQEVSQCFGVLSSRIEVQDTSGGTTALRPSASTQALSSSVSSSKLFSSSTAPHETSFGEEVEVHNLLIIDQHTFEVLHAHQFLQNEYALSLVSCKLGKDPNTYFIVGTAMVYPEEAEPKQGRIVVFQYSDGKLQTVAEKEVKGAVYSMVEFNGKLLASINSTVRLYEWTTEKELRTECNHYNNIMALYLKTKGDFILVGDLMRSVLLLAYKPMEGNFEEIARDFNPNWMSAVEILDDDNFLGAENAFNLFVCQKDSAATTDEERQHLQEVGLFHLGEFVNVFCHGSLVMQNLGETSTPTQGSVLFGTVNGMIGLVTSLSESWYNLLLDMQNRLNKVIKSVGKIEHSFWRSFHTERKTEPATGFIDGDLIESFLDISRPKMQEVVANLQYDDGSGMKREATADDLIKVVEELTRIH

| SMILES | DC50 [µM] | Dmax (maximal effect) [%] |
| --- | --- | --- |
| COc1ccc(-c2ocnc2C(=O)NCCCn2cc(CCCCCN3CCCN(Cc4cccc(N5CCC(=O)NC5=O)c4)CC3)nn2)cc1Cl [AHD2B-1-A9] | > 10 | <30 |
| COc1ccc(-c2ocnc2C(=O)NCCCn2cc(CCCCCN3CCCN(Cc4ccc(C(=O)NC5CCC(=O)NC5=O)nc4)CC3)nn2)cc1Cl (stereo not drawn) [AHD2B-1-F9] | > 10 | <30 |
| COc1ccc(-c2ocnc2C(=O)NCCCn2cc(CCCOc3ccc(CN4CCN(Cc5cccc(N6CCC(=O)NC6=O)c5)CC4)cc3)nn2)cc1Cl [AHD2B-1-A4] | > 10 | <30 |
| COc1ccc(-c2ocnc2C(=O)NCCCn2cc(COC3CCN(Cc4ccc(C(=O)NC5CCC(=O)NC5=O)nc4)CC3)nn2)cc1Cl (stereo not drawn) [AHD2B-1-F5] | > 10 | <30 |
| COc1ccc(-c2ocnc2C(=O)NCCCn2cc(COc3ccc(CN4CC5(C4)CN(Cc4ccc(C(=O)NC6CCC(=O)NC6=O)nc4)C5)cc3)nn2)cc1Cl (stereo not drawn) [AHD2B-1-F11] | > 10 | <30 |
| COc1ccc(-c2ocnc2C(=O)NCCCn2cc(CCCN3CCN(Cc4ccc(N5CCC(=O)NC5=O)cc4)CC3)nn2)cc1Cl [AHD2B-1-G12] | > 10 | <30 |
| COc1ccc(-c2ocnc2C(=O)NCCCn2cc(COC3CCN(Cc4cccc(N5CCC(=O)NC5=O)c4)CC3)nn2)cc1Cl [AHD2B-1-A5] | > 10 | <30 |
| COc1ccc(-c2ocnc2C(=O)NCCCn2cc(CCCN3CCN(Cc4ccc(C(=O)NC5CCC(=O)NC5=O)c(F)c4)CC3)nn2)cc1Cl (stereo not drawn) [AHD2B-1-C12] | > 10 | <30 |
| COc1ccc(-c2ocnc2C(=O)NCCCn2cc(COc3ccc(CN4CCC5(C4)CN(Cc4cccc(N6CCC(=O)NC6=O)c4)C5)cc3)nn2)cc1Cl [AHD2B-1-A6] | > 10 | <30 |
| COc1ccc(-c2ocnc2C(=O)NCCCn2cc(COCCOCCN3CCN(Cc4ccc(C(=O)NC5CCC(=O)NC5=O)c(F)c4)CC3)nn2)cc1Cl (stereo not drawn) [AHD2B-1-C10] | > 10 | <30 |
| COc1ccc(-c2ocnc2C(=O)NCCCn2cc(COCCOCCN3CCN(Cc4cccc(N5CCC(=O)NC5=O)c4)CC3)nn2)cc1Cl [AHD2B-1-A10] | > 10 | <30 |

Next, values leading:

| DC50 [µM] | Dmax (maximal effect) [%] | SMILES |
| --- | --- | --- |
| > 10 | <30 | COc1ccc(-c2ocnc2C(=O)NCCCn2cc(-c3ccc(CN4CCN(Cc5ccc(C(=O)NC6CCC(=O)NC6=O)nc5)CC4)cn3)nn2)cc1Cl (stereo not drawn) [AHD2B-1-F2] |
| > 10 | <30 | COc1ccc(-c2ocnc2C(=O)NCCCn2cc(CCCCN3CCN(Cc4ccc(N5CCC(=O)NC5=O)cc4)CC3)nn2)cc1Cl [AHD2B-1-G1] |
| > 10 | <30 | COc1ccc(-c2ocnc2C(=O)NCCCn2cc(COc3ccc(CN4CC5(C4)CN(Cc4cccc(N6CCC(=O)NC6=O)c4)C5)cc3)nn2)cc1Cl [AHD2B-1-A11] |
| > 10 | <30 | COc1ccc(-c2ocnc2C(=O)NCCCn2cc(CCCOc3ccc(CN4CCN(CC(=O)N[C@H](C(=O)N5C[C@H](O)C[C@H]5C(=O)NCc5ccc(-c6scnc6C)cc5)C(C)(C)C)CC4)cc3)nn2)cc1Cl [AHD2B-1-B4] |
| > 10 | <30 | COc1ccc(-c2ocnc2C(=O)NCCCn2cc(COC3CCN(CC(=O)N[C@H](C(=O)N4C[C@H](O)C[C@H]4C(=O)NCc4ccc(-c5scnc5C)cc4)C(C)(C)C)CC3)nn2)cc1Cl [AHD2B-1-B5] |
| > 10 | <30 | COc1ccc(-c2ocnc2C(=O)NCCCn2cc(-c3ccc(CN4CCN(CC(=O)N[C@H](C(=O)N5C[C@H](O)C[C@H]5C(=O)NCc5ccc(-c6scnc6C)cc5)C(C)(C)C)CC4)cn3)nn2)cc1Cl [AHD2B-1-B2] |
| > 10 | <30 | COc1ccc(-c2ocnc2C(=O)NCCCn2cc(CCCCN3CCN(Cc4ccc(C(=O)NC5CCC(=O)NC5=O)nc4)CC3)nn2)cc1Cl (stereo not drawn) [AHD2B-1-F1] |
| > 10 | <30 | COc1ccc(-c2ocnc2C(=O)NCCCn2cc(CCCCCN3CCCN(Cc4ccc(N5CCC(=O)NC5=O)cc4)CC3)nn2)cc1Cl [AHD2B-1-G9] |
| 1.1 | 34 | COc1ccc(-c2ocnc2C(=O)NCCCn2cc(COc3ccc(CN4CCC5(C4)CN(Cc4ccc(C(=O)NC6CCC(=O)NC6=O)nc4)C5)cc3)nn2)cc1Cl (stereo not drawn) [AHD2B-1-F6] |
| < 0.25 | 53 | COc1ccc(-c2ocnc2C(=O)NCCCn2cc(CCCOc3ccc(CN4CCN(Cc5ccc(C(=O)NC6CCC(=O)NC6=O)c(F)c5)CC4)cc3)nn2)cc1Cl (stereo not drawn) [AHD2B-1-C4] |
| 1.9 | 56 | COc1ccc(-c2ocnc2C(=O)NCCCn2cc(COc3ccc(CN4CC5(C4)CN(Cc4ccc(C(=O)NC6CCC(=O)NC6=O)c(F)c4)C5)cc3)nn2)cc1Cl (stereo not drawn) [AHD2B-1-C11] |
| 1.6 | 59 | COc1ccc(-c2ocnc2C(=O)NCCCn2cc(COc3ccc(CN4CCC5(C4)CN(Cc4ccc(C(=O)NC6CCC(=O)NC6=O)c(F)c4)C5)cc3)nn2)cc1Cl (stereo not drawn) [AHD2B-1-C6] |
| < 0.25 | 63 | COc1ccc(-c2ocnc2C(=O)NCCCn2cc(-c3ccc(CN4CCN(Cc5ccc6c(N7CCC(=O)NC7=O)nn(C)c6c5)CC4)cn3)nn2)cc1Cl [AHD2B-1-D2] |
